Consider two compounds from patent US5770618A (Nastech Pharmaceutical Company, Inc., priority 1996, dated 1998).

The structures appear in SMILES notation. Structures can show the parent of a compound that is named as a salt.

For data set [1] the following is noted: cited from earlier work.
Data set [2] is described as follows: physchem.
Description: The final pH values of the solutions ranged from about 4 to about 6.
Data set [3] is described as follows: physchem. This is another data set of the same source.

As for `CN1CCC[C@@H]1CCO[C@](C)(c1ccccc1)c1ccc(Cl)cc1` [clemastine], the “solubility in pharmaceutically acceptable solvents” value in data set [1] (as is well known in the art, clemastine and its salts) is “sparingly soluble”.
In the case of `CN1CCC[C@@H]1CCO[C@](C)(c1ccccc1)c1ccc(Cl)cc1` [Clemastine Fumarate, clemastine fumarate], the solubility is 0.6 mg/mL in “physchem [2]” (acetate buffer 0.5 m, pH 4.1); 3.8 mg/mL in “physchem [2]” (acetate buffer 0.5 m, pH 5); 11.2 mg/mL in “physchem [2]” (acetate buffer 0.5 m, pH 5.3); 18.2 mg/mL in “physchem [2]” (acetate buffer 0.5 m, pH 5.5); 24 mg/mL in “physchem [2]” (acetate buffer 0.5 m, pH 5.7); 2.7 mg/mL in the data set “physchem [2]” (citrate buffer 0.5 m, pH 4.1). The solubility amounted to 3.3 mg/mL in “physchem [2]” (citrate buffer 0.5 m, pH 4.9); 31.6 mg/mL in the data set “physchem [2]” (citrate buffer 0.5 m, pH 5.3); 46.3 mg/mL in the data set “physchem [2]” (citrate buffer 0.5 m, pH 5.6); 47 mg/mL in “physchem [2]” (citrate buffer 0.5 m, pH 5.8). In data set [1] (Remington, 19th edition, 1995), the solubility in alcohol entry is listed as “only slightly soluble”. Also, in data set [1] (Remington, 19th edition, 1995), the “solubility in water, chloroform or ether” value is “very slightly soluble”. The solubility at 24 h in the data set “physchem [3]” (ammonium acetate 0.1 m, pH 5.4, Clemastine Fumarate Solubility) turned out to be 6.1 mg/mL; in the data set “physchem [3]” (ammonium acetate 0.25 m, pH 5.5, Clemastine Fumarate Solubility) it was 12.2 mg/mL; in “physchem [3]” (ammonium acetate 0.5 m, pH 5.6, Clemastine Fumarate Solubility), 25.7 mg/mL; in “physchem [3]” (ammonium acetate 1.0 m, pH 5.7, Clemastine Fumarate Solubility), 43.3 mg/mL; in the data set “physchem [3]” (sodium acetate 0.1 m, pH 5.4, Clemastine Fumarate Solubility) it was 6.6 mg/mL; in “physchem [3]” (sodium acetate 0.25 m, pH 5.5, Clemastine Fumarate Solubility) it was 14.3 mg/mL. The solubility at 24 h in “physchem [3]” (sodium acetate 0.5 m, pH 5.6, Clemastine Fumarate Solubility) was 24 mg/mL; in “physchem [3]” (sodium acetate 1.0 m, pH 5.7, Clemastine Fumarate Solubility) it was 41.2 mg/mL; in “physchem [3]” (sodium ascorbate 0.1 m, pH 5.2, Clemastine Fumarate Solubility), 5.5 mg/mL; in the data set “physchem [3]” (sodium ascorbate 0.25 m, pH 5.2, Clemastine Fumarate Solubility), 7.5 mg/mL; in “physchem [3]” (sodium ascorbate 0.5 m, pH 5.2, Clemastine Fumarate Solubility), 16.7 mg/mL; in “physchem [3]” (sodium ascorbate 1.0 m, pH 5.3, Clemastine Fumarate Solubility) it was 30.6 mg/mL. In addition, the solubility at 24 h in the data set “physchem [3]” (sodium citrate 0.15 m, pH 5.6, Clemastine Fumarate Solubility) stood at 28.6 mg/mL; in “physchem [3]” (sodium citrate 0.25 m, pH 5.7, Clemastine Fumarate Solubility), 40 mg/mL; in the data set “physchem [3]” (sodium fumarate 0.25 m, pH 6.2, Clemastine Fumarate Solubility), 44.2 mg/mL; in the data set “physchem [3]” (sodium fumarate 0.5 m, pH 6.4, Clemastine Fumarate Solubility) it was 82.1 mg/mL; in the data set “physchem [3]” (sodium glycinate 0.25 m, pH 9.1, Clemastine Fumarate Solubility) it was 15.5 mg/mL; in the data set “physchem [3]” (sodium glycinate 0.5 m, pH 9.4, Clemastine Fumarate Solubility) it was 26.6 mg/mL. In addition, the solubility at 24 h in “physchem [3]” (sodium malate 0.1 m, Clemastine Fumarate Solubility) turned out to be 13.8 mg/mL; in the data set “physchem [3]” (sodium malate 0.25 m, pH 6, Clemastine Fumarate Solubility), 16.9 mg/mL; in “physchem [3]” (sodium malate 0.5 m, pH 5.5, Clemastine Fumarate Solubility), 25.5 mg/mL; in “physchem [3]” (sodium malate 1.0 m, pH 5.7, Clemastine Fumarate Solubility) it was 29.3 mg/mL; in the data set “physchem [3]” (sodium maleate 0.25 m, pH 6, Clemastine Fumarate Solubility), 41.4 mg/mL; in the data set “physchem [3]” (sodium maleate 0.5 m, pH 6.5, Clemastine Fumarate Solubility), 65 mg/mL. Further, the solubility at 24 h was determined as 153 mg/mL in “physchem [3]” (sodium maleate 1.0 m, pH 6.8, Clemastine Fumarate Solubility); 15.4 mg/mL in “physchem [3]” (sodium succinate 0.25 m, pH 6.1, Clemastine Fumarate Solubility); 18.2 mg/mL in “physchem [3]” (sodium succinate 0.5 m, pH 6.3, Clemastine Fumarate Solubility); 13.3 mg/mL in the data set “physchem [3]” (sodium tartarate 0.5 m, pH 5.1, Clemastine Fumarate Solubility).
